In ChEMBL document CHEMBL4130353, “2-Substituted 3,7,8-trimethylnaphtho[1,2-b]furan-4,5-diones as specific L-shaped NQO1-mediated redox modulators for the treatment of non-small cell lung cancer” (Eur J Med Chem, 2017):
Calls of active or inactive are those of the source. The calls are words filed in the database; no cut-off is given here.

Tests used:
L02 = assay: Cytotoxicity against human L02 cells assessed as cell growth inhibition preincubated for 24 hrs followed by compound washout measured after 72 hrs by MTT assay; assay type: cell-based
A549 [1] = assay: Effect on total p38 protein levels in human A549 cells at 10 uM after 3 hrs in presence of NAC by Western blot analysis relative to control; assay type: ADME, cell-based; details: a549, 3 h
A549 [2] = assay: Effect on total p38 protein levels in human A549 cells at 1 uM after 3 hrs by Western blot analysis relative to control; assay type: ADME, cell-based; details: a549, 3 h
[3] = target: NAD(P)H dehydrogenase [quinone] 1 (Homo sapiens) (UniProt P15559); assay: Substrate activity at NQO1 in human A549 cells assessed as induction of ROS-induced p38 phosphorylation at T180/Y182 after 3 hrs by Western blot analysis; assay type: cell-based
A549 [4] = assay: Effect on total ERK protein levels in human A549 cells at 10 uM after 3 hrs in presence of DIC by Western blot analysis relative to control; assay type: ADME, cell-based; details: a549, 3 h
[5] = target: NAD(P)H dehydrogenase [quinone] 1 (Homo sapiens) (UniProt P15559); assay: Substrate activity at NQO1 in human A549 cells assessed as induction of enzyme-catalyzed lipid peroxidation by measuring MDA equivalents per protein at 5 uM after 24 hrs by TBARS assay (reference value: 3.53 +/- 1.12 nmol/mg); assay type: cell-based
A549 [6] = assay: Antitumor activity against human A549 cells xenografted in athymic nude mouse assessed as tumor growth inhibition at 50 mg/kg, iv administered every other day for 3 weeks measured every day during compound dosing relative to control; assay type: functional; details: 504 h, read-out: TGI
A549 [7] = assay: Induction of apoptosis in human A549 cells assessed as chromatin condensation after 24 hrs by DAPI-staining based microscopy; assay type: functional, cell-based
Mus musculus = assay: Toxicity in athymic nude mouse xenografted with human A549 cells assessed as effect on body weight at 50 mg/kg, iv administered every other day for 3 weeks; assay type: organism-based; details: in vivo, 504 h
[8] = target: NAD(P)H dehydrogenase [quinone] 1 (Homo sapiens) (UniProt P15559); assay: Substrate activity at NQO1 in human A549 cells assessed as induction of ROS-induced p38 phosphorylation at T180/Y182 at 5 uM after 3 hrs by Western blot analysis relative to control; assay type: cell-based
A549 [9] = assay: Induction of ROS levels in human A549 cells xenografted in athymic nude mouse at 15 to 30 mg/kg, iv administered every other day for 3 weeks by DCFH-DA-probe based flow cytometry; assay type: functional, organism-based
[10] = target: NAD(P)H dehydrogenase [quinone] 1 (Homo sapiens) (UniProt P15559); assay: Substrate activity at NQO1 in human A549 cells assessed as induction of enzyme-catalyzed ROS production at 10 uM after 1 to 3 hrs in presence of NAC by DCFH-DA-based flow cytometry; assay type: cell-based
[11] = target: NAD(P)H dehydrogenase [quinone] 1 (Homo sapiens) (UniProt P15559); assay: Substrate activity at NQO1 in human A549 cells assessed as induction of ROS-induced Akt phosphorylation at […] at 5 uM after 3 hrs by Western blot analysis relative to control; assay type: cell-based
[12] = target: NAD(P)H dehydrogenase [quinone] 1 (Homo sapiens) (UniProt P15559); assay: Substrate activity at NQO1 in human A549 cells assessed as induction of ROS-induced ERK phosphorylation after 3 hrs by Western blot analysis; assay type: cell-based
A549 [13] = assay: Antitumor activity against human A549 cells xenografted in athymic nude mouse assessed as tumor growth inhibition at 30 mg/kg, iv administered every other day for 3 weeks measured every day during compound dosing relative to control; assay type: functional; details: 504 h, read-out: TGI
Homo sapiens = species: Homo sapiens; assay: Selectivity ratio for substrate activity at recombinant human NQO1 to substrate activity at CBR (unknown origin)
[14] = target: NAD(P)H dehydrogenase [quinone] 1 (Homo sapiens) (UniProt P15559); assay: Substrate activity at NQO1 in human A549 cells assessed as induction of ROS-induced Akt phosphorylation at S473 at 1 uM after 3 hrs by Western blot analysis relative to control; assay type: cell-based
A549 [15] = assay: Cytotoxicity against human A549 cells assessed as cell growth inhibition preincubated for 24 hrs followed by compound washout measured after 72 hrs in presence of NQO1 inhibitor DIC by MTT assay; assay type: functional, cell-based
A549 [16] = assay: Effect on total AKT protein levels in human A549 cells at 10 uM after 3 hrs by Western blot analysis relative to control; assay type: ADME, cell-based; details: a549, 3 h
[17] = target: NAD(P)H dehydrogenase [quinone] 1 (Homo sapiens) (UniProt P15559); assay: Substrate activity at NQO1 in human A549 cells assessed as induction of ROS-induced JNK phosphorylation at 10 uM after 3 hrs in presence of DIC by Western blot analysis relative to control; assay type: cell-based
[18] = target: NAD(P)H dehydrogenase [quinone] 1 (Homo sapiens) (UniProt P15559); assay: Substrate activity at NQO1 in human A549 cells assessed as induction of ROS-induced Akt phosphorylation at S473 at 5 uM after 3 hrs by Western blot analysis relative to control; assay type: cell-based
[19] = target: NAD(P)H dehydrogenase [quinone] 1 (Homo sapiens) (UniProt P15559); assay: Substrate activity at NQO1 in human A549 cells assessed as induction of ROS-induced Akt phosphorylation at […] after 3 hrs by Western blot analysis; assay type: cell-based
A549 [20] = assay: Effect on total AKT protein levels in human A549 cells at 1 uM after 3 hrs by Western blot analysis relative to control; assay type: ADME, cell-based; details: a549, 3 h

Chain of NAD(P)H dehydrogenase [quinone] 1 (Homo sapiens) (P15559 whole entry): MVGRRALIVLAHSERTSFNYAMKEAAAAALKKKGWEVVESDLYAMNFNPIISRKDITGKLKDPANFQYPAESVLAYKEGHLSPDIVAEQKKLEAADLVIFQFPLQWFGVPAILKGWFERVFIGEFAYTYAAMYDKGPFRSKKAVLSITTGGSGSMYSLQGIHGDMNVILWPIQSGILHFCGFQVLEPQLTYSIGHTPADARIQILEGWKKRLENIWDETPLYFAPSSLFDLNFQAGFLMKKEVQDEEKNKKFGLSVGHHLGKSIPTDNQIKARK

fold change (FC) (A549 [1]): 0.99
fold change (FC) (A549 [2]): 0.93
Activity [3]: Dose-dependent effect
fold change (FC) (A549 [4]): 0.87
Activity [5]: 10.3 nmol/mg
fold change (FC) [8]: 12.1
Activity [10]: inactive
fold change (FC) [11]: 2.96
Activity [12]: Dose-dependent effect
Selectivity ratio (Homo sapiens): 8.49
fold change (FC) [14]: 1.51
fold change (FC) (A549 [16]): 1.3
fold change (FC) [17]: 7.1
fold change (FC) [18]: 2.01
Activity [19]: Dose-dependent effect
fold change (FC) (A549 [20]): 1.07
SMILES: Cc1cc2c(cc1C)-c1oc(CNc3ccc(CN4CCOCC4)cc3)c(C)c1C(=O)C2=O
IC50 (L02): 35 µM
inhibition in vivo at 50 mg/kg (A549 [6]): 90.3%
Activity (A549 [7]): Dose-dependent effect
Activity (Mus musculus): Non-Toxic
Activity (A549 [9]): Active
inhibition in vivo at 30 mg/kg (A549 [13]): 87.1%
IC50 (A549 [15]): > 50 µM
